Data published in patent US8680052B1, “Methods of treating, reducing the incidence of, and/or preventing ischemic events” (The Medicines Company, priority 2013, dated 2014).

What was measured:
[1] = system: vasodilator-stimulated phosphoprotein (VASP); test: Example 4: vasodilator-stimulated phosphoprotein (VASP) index; format: in vivo, human
Procedure: The study involved 12 patients who met the criteria of being 18-75 years of age, having coronary artery disease (CAD) documented by a previous MI or coronary revascularization, and taking 81 mg of aspirin daily. […] Prohibited concomitant medications included strong and potent CYP3A inhibitors, simvastatin and lovastatin at doses more than 40 mg/day, omeprazole or esomeprazole, and digoxin. Use of non-steroidal anti-inflammatory agents was discouraged during study participation but not prohibited.
Each patient was administered a 30 μg/kg bolus of cangrelor followed immediately by a 2 hr infusion at a rate of 4.0 μg/kg/min. A loading dose of ticagrelor (180 mg) was given after 0.5 hr or 1.25 hr (n=6 for each). Blood for pharmacodynamic platelet function studies was taken after 0.5 or 1.25 hr (corresponding to the time of ticagrelor load, n=6 for each), and then at 1.75, 2, 2.25, 2.5, 2.75, 3, 4, and 5.25 hr. Patients were assigned randomly to receive either 6 (n=6) or 7 (n=6) doses of ticagrelor to be taken every 12 hours following the discontinuation of the infusion of cangrelor. On study day 5, each patient was administered a 30 μg/kg bolus of cangrelor followed immediately by a 2 hr infusion at a rate of 4.0 μg/kg/min. Blood for pharmacodynamic assessment was taken after 1 and 2 hr. Adverse events were queried throughout study participation that ended with a telephone interview performed on study day 10-12.
Pharmacodynamic assessment included light transmission aggregometry (LTA), VerifyNow® P2Y12 assay, vasodilator-stimulated phosphoprotein (VASP) index, and platelet activation measured with the use of flow cytometry. Assessment of LTA, VerifyNow®, and platelet activation with the use of flow cytometry was performed within 30 min of blood being taken. In the case of flow cytometry, samples were processed to fixation and then batched for analysis. For VASP, index samples were batched and processed as recommended by the vendor within 2 h of blood being taken. This approach limited the time from fixation of VASP index to flow analysis to less than 1 h.
LTA induced by 5 μM and 20 μM adenosine diphosphate (ADP) was quantified ex vivo (i.e. in non-adjusted platelet rich plasma). Platelet-poor plasma was set as 100% aggregation, and both maximal (peak) and terminal (at 300 s) aggregation were measured with a PAP4 aggregometer (BioData, Horsham, Pa.). VerifyNow® P2Y12 assay (Accumetrics Inc, San Diego, Calif.) that measures the effects of drugs on the P2Y12 receptor by activating platelets with prostaglandin El in addition to ADP was used in accordance with the instructions provided by the manufacturer. Platelet reactivity was expressed in P2Y12 reaction units (PRU). Activation of platelets was identified with the use of flow cytometry as previously described.^17. And to determine the VASP index, a commercially available kit (Diagnostica Stago, Inc, Parsippany NJ) was used. ^17 Schneider D J, Sobel B E. Streamlining the design of promising clinical trials: in-vitro testing of antithrombotic regimens and multiple agonists of platelet activation. Coron Artery Dis. 2009; 20:175-8.

[2] = system: patients with acute coronary syndromes undergoing PCI; test: Example 2: bleeding (GUSTO, TIMI, ACUITY) and adverse events up to 48 hours; format: in vivo, human
Excerpt: Multiple definitions of bleeding were used for full disclosure of bleeding risks associated with cangrelor: […] N Engl J Med 329:673-82 (1993); mild, moderate, or severe/life-threatening based on transfusion use and presence/absence of hemodynamic compromise); […] Investigators reported adverse and serious adverse events according to International Conference on Harmonization guidance (International Conference on Harmonization (ICH) Guidance Documents. U.S. Food and Drug Administration Web site. (Accessed on Oct. 8, 2009, at the FDA website beginning with “www.” and ending with “fda.gov/RegulatoryInformation/Guidances/ucm122049.htm”)).

`CSCCNc1nc(SCCC(F)(F)F)nc2c1ncn2[C@@H]1O[C@H](COP(=O)(O)OP(=O)(O)C(Cl)(Cl)P(=O)(O)O)[C@@H](O)[C@H]1O` [Cangrelor, cangrelor] was tested, and the “VASP Index VI” value ([1]; Study Day 1, 1.75 h, All) was 13 ± 9, the “VASP Index VI” value ([1]; Study Day 1, 1.75 h, Ticagrelor at 0.5 hr) was 13 ± 9 and the “VASP Index VI” value ([1]; Study Day 1, 1.75 h, Ticagrelor at 1.25 hr) was 13 ± 4. The “VASP Index VI” value ([1]; Study Day 1, 2.0 h, All) was 15 ± 9, the “VASP Index VI” value ([1]; Study Day 1, 2.0 h, Ticagrelor at 0.5 hr) was 11 ± 7 and the “VASP Index VI” value ([1]; Study Day 1, 2.0 h, Ticagrelor at 1.25 hr) was 19 ± 7. For the same molecule, the “VASP Index VI” value ([1]; Study Day 1, reference 0.5/1.25 h, All) was 18 ± 10, the “VASP Index VI” value ([1]; Study Day 1, reference 0.5/1.25 h, Ticagrelor at 0.5 hr) was 18 ± 13 and the “VASP Index VI” value ([1]; Study Day 1, reference 0.5/1.25 h, Ticagrelor at 1.25 hr) was 19 ± 8. The “VASP Index VI” value ([1]; Study Day 5, 1.0 h, All) was 16 ± 11, the “VASP Index VI” value ([1]; Study Day 5, 1.0 h, Ticagrelor 6 doses) was 19 ± 14 and the “VASP Index VI” value ([1]; Study Day 5, 1.0 h, Ticagrelor 7 doses) was 12 ± 7. For the same molecule, the “VASP Index VI” value ([1]; Study Day 5, 2.0 h, All) was 17 ± 5, the “VASP Index VI” value ([1]; Study Day 5, 2.0 h, Ticagrelor 6 doses) was 20 ± 3 and the “VASP Index VI” value ([1]; Study Day 5, 2.0 h, Ticagrelor 7 doses) was 14 ± 6. For the same molecule, the “OR (95% CI): Hematoma ≧5 cm at puncture site” value ([2]; 48-hour, safety population, cangrelor vs clopidogrel) was 1.12 (0.82, 1.53), the “ACUITY criteria Major bleeding” value ([2]; human, in vivo, 48 h) was 158 (3.6) no. (%) and the “ACUITY criteria Minor bleeding” value ([2]; human, in vivo, 48 h) was 768 (17.6) no. (%). For the same molecule, the “Access site bleeding requiring radiologic or surgical intervention” value ([2]; human, in vivo, 48 h) was 6 (0.1) no. (%), the Any blood transfusion ([2]; human, in vivo, 48 h) was 46 (1.1) no. (%) and the Any platelet transfusion ([2]; human, in vivo, 48 h) was 6 (0.1) no. (%). The “Drop in hemoglobin and/or hematocrit” value ([2]; human, in vivo, 48 h) was 91 (2.1) no. (%), the Dyspnea ([2]; human, in vivo, 48 h) was 1.0% and the Ecchymosis ([2]; human, in vivo, 48 h) was 284 (6.5) no. (%). For the same molecule, the Epistaxis ([2]; human, in vivo, 48 h) was 9 (0.2) no. (%), the “GUSTO criteria Mild bleeding” value ([2]; human, in vivo, 48 h) was 858 (19.6) no. (%) and the “GUSTO criteria Moderate bleeding” value ([2]; human, in vivo, 48 h) was 41 (0.9) no. (%). The “GUSTO criteria Severe/life-threatening bleeding” value ([2]; human, in vivo, 48 h) was 10 (0.2) no. (%), the “Hematoma <5 cm at puncture site” value ([2]; human, in vivo, 48 h) was 251 (5.7) no. (%) and the “Hematoma ≧5 cm at puncture site” value ([2]; human, in vivo, 48 h) was 85 (1.9) no. (%). The Hemodynamic compromise ([2]; human, in vivo, 48 h) was 9 (0.2) no. (%), the Intracranial hemorrhage ([2]; human, in vivo, 48 h) was 1 (0.0) no. (%) and the Intraocular ([2]; human, in vivo, 48 h) was 2 (0.0) no. (%). The “OR (95% CI): ACUITY criteria Major bleeding” value ([2]; human, in vivo, 48 h) was 1.26 (0.99, 1.60), the “OR (95% CI): ACUITY criteria Minor bleeding” value ([2]; human, in vivo, 48 h) was 1.19 (1.06, 1.33) and the “OR (95% CI): Access site bleeding requiring radiologic or surgical intervention” value ([2]; human, in vivo, 48 h) was 0.60 (0.22, 1.65). The “OR (95% CI): Any blood transfusion” value ([2]; human, in vivo, 48 h) was 1.09 (0.72, 1.67), the “OR (95% CI): Any platelet transfusion” value ([2]; human, in vivo, 48 h) was 1.20 (0.37, 3.93) and the “OR (95% CI): Drop in hemoglobin and/or hematocrit” value ([2]; human, in vivo, 48 h) was 1.45 (1.05, 2.01). The “OR (95% CI): Ecchymosis” value ([2]; human, in vivo, 48 h) was 1.23 (1.03, 1.47), the “OR (95% CI): Epistaxis” value ([2]; human, in vivo, 48 h) was 0.41 (0.19, 0.89) and the “OR (95% CI): GUSTO criteria Mild bleeding” value ([2]; human, in vivo, 48 h) was 1.20 (1.07, 1.34). The “OR (95% CI): GUSTO criteria Moderate bleeding” value ([2]; human, in vivo, 48 h) was 1.21 (0.76, 1.90), the “OR (95% CI): GUSTO criteria Severe/life-threatening bleeding” value ([2]; human, in vivo, 48 h) was 0.91 (0.39, 2.14) and the “OR (95% CI): Hematoma <5 cm at puncture site” value ([2]; human, in vivo, 48 h) was 1.14 (0.94, 1.37). For the same molecule, the “OR (95% CI): Hemodynamic compromise” value ([2]; human, in vivo, 48 h) was 0.82 (0.34, 1.97), the “OR (95% CI): Oozing at puncture site” value ([2]; human, in vivo, 48 h) was 1.28 (1.10, 1.49) and the “OR (95% CI): Reoperation for bleeding” value ([2]; human, in vivo, 48 h) was 1.00 (0.06, 15.96). The “OR (95% CI): Retroperitoneal” value ([2]; human, in vivo, 48 h) was 1.50 (0.67, 3.34), the “OR (95% CI): TIMI criteria Major bleeding” value ([2]; human, in vivo, 48 h) was 1.36 (0.68, 2.71) and the “OR (95% CI): TIMI criteria Minor bleeding” value ([2]; human, in vivo, 48 h) was 1.39 (0.84, 2.30). For the same molecule, the “OR (95% CI): Thrombocytopenia” value ([2]; human, in vivo, 48 h) was 0.86 (0.29, 2.55), the “Oozing at puncture site” value ([2]; human, in vivo, 48 h) was 400 (9.1) no. (%) and the Reoperation for bleeding ([2]; human, in vivo, 48 h) was 1 (0.0) no. (%). For the same molecule, the Reported adverse events ([2]; human, in vivo, 48 h) was 26.4%, the Retroperitoneal ([2]; human, in vivo, 48 h) was 15 (0.3) no. (%) and the Serious adverse events ([2]; human, in vivo, 48 h) was 2.7%. The “TIMI criteria Major bleeding” value ([2]; human, in vivo, 48 h) was 19 (0.4) no. (%), the “TIMI criteria Minor bleeding” value ([2]; human, in vivo, 48 h) was 36 (0.8) no. (%) and the Thrombocytopenia ([2]; human, in vivo, 48 h) was 6 (0.1) no. (%). The “discontinuation of study drug due to an adverse event” value ([2]; human, in vivo, 48 h) was 0.5%.

`CCCSc1nc(N[C@@H]2C[C@H]2c2ccc(F)c(F)c2)c2nnn([C@@H]3C[C@H](OCCO)[C@@H](O)[C@H]3O)c2n1` [ticagrelor] was tested, and the “VASP Index VI” value ([1]; 2.25 h, All) was 35 ± 10, the “VASP Index VI” value ([1]; 2.25 h, Ticagrelor at 0.5 h) was 37 ± 8 and the “VASP Index VI” value ([1]; 2.25 h, Ticagrelor at 1.25 h) was 32 ± 11. For the same molecule, the “VASP Index VI” value ([1]; 2.5 h, All) was 48 ± 49, the “VASP Index VI” value ([1]; 2.5 h, Ticagrelor at 0.5 h) was 41 ± 25 and the “VASP Index VI” value ([1]; 2.5 h, Ticagrelor at 1.25 h) was 54 ± 32. For the same molecule, the “VASP Index VI” value ([1]; 2.75 h, All) was 22 ± 16, the “VASP Index VI” value ([1]; 2.75 h, Ticagrelor at 0.5 h) was 21 ± 13 and the “VASP Index VI” value ([1]; 2.75 h, Ticagrelor at 1.25 h) was 22 ± 20. For the same molecule, the “VASP Index VI” value ([1]; 3 h, All) was 25 ± 19, the “VASP Index VI” value ([1]; 3 h, Ticagrelor at 0.5 h) was 24 ± 19 and the “VASP Index VI” value ([1]; 3 h, Ticagrelor at 1.25 h) was 26 ± 20. The “VASP Index VI” value ([1]; 4 h, All) was 17 ± 14, the “VASP Index VI” value ([1]; 4 h, Ticagrelor at 0.5 h) was 16 ± 14 and the “VASP Index VI” value ([1]; 4 h, Ticagrelor at 1.25 h) was 19 ± 16. For the same molecule, the “VASP Index VI” value ([1]; reference 5.25 h, All) was 12 ± 12, the “VASP Index VI” value ([1]; reference 5.25 h, Ticagrelor at 0.5 h) was 11 ± 10 and the “VASP Index VI” value ([1]; reference 5.25 h, Ticagrelor at 1.25 h) was 14 ± 15.
